Experiment [1] concerns hPSC-NSCs. Briefly: RT-PCR expression of dopamine neuron genes in hPSC-NSCs treated with small molecule hits. Conditions: for fold induction at 2.5 µM: Homo sapiens, Neuron, 336 h. Type of experiment: cell-based, human. As to the method: (§1) The method specifically involved treating both hESC-H9-NSCs (Invitrogen) and hPSC-NSCs with Purmorphamine (2 μM) and FGF8 (100 ng/mL) in NB medium [NeuroBasal medium, 1× GlutaMAX, 1× N2/B27 Supplement (Invitrogen)] for 7 days. After 7 days of Purmorphamine and FGF8 treatment, the NSCs were dissociated with Accutase (Sigma) and plated 20,000 cells/mL into Matrigel coated 96 well plates and treated with small molecule library (Torcris 1120 Biologically Active Compounds) at 2.5 μM final concentration for two weeks (FIG. 6A). Two weeks after treatment with small molecules, all wells were visually observed and scored based on neurite density and dopamine release. For measuring neurite density, cells were fixed with 4% paraformaldehyde and phase contrast images were acquired using Cellavista Cell Imaging System (Roche Applied Science) from randomly selected fields. Neurite density was measured using the Cellavista density software image processing program. Each experimental condition was done in duplicate wells, and at least three independent experiments were conducted to acquire the final results.
(§2) Conditioned medium from the top neurite inducers (Table 1) (wells containing the highest density of neurites compare to control 0.1% DMSO treated) were collected and analyzed using a dopamine ELISA assay (Cosmo Bio). Conditioned medium was collected from samples containing 50,000 cells per well and centrifuged at 3000 RPM to remove cell debris. Supernatant was then collected and analyzed for quantitative determination of dopamine using a commercial dopamine ELISA assay kit (CusaCosmo Bio). Data analysis was performed using the microtiter plate reader (BIO-TEK Synergy 2). The results presented are from three independent experiments (n=3) and represented as mean±standard error of mean (s.e.m.) and statistical analysis was performed using the two-tailed Student's t-test with a confidence level of 95% (α=0.05) with statistical significance of P<0.05. Additionally, total RNA from each well were collected and analyze by RT-PCR for expression of TuJ1, MAP2, TH, GRK2, EN1, DAT, AADC, PAX2, NURR1, PITX3 and LMX1B from hPSC-NSCs (Table 2). […] Analysis of the ELISA data indicated the top small molecule neurite inducers produced higher levels of dopamine than control non-treated cells (1.5 ng/mL). […] The percentages of TH positive cells produced by chemical treatment with Kenpaullone (33%), Guggulsterone (35%), Kynurenic Acid (19%), Immedthridine Dihydrobromide (21%), and Dimaprit Dihydrochloride (18%) were higher than 15% of TH positive cells obtained from hPSC-NSCs differentiated for ≥1 month using a standard dopaminergic differentiation medium (BDNF 20 ng/mL, GDNF 20 ng/mL, cAMP 200 μM, Abscorbic Acid 200 μM, TGFβ3 2 ng/mL and DAPT).
Total RNA from at least triplicate samples with around 1 million cells each was isolated using either QIAsymphony automatic purification system or RNeasy Plus Mini kit, according to manufacturer's instructions (Qiagen). Total RNA was used for reverse transcription with the iScript cDNA synthesis kit (Biorad) and Px2 Thermal Cycler (Thermo Scientific). To analyze gene expression, PCR reactions were performed in duplicate using 1/25-th of the cDNA per reaction and the QuantiTect Primer Assay and Quantitest SYBR Green master mix (Qiagen). qPCR was performed using the Rotor-Gene Q (Qiagen) 5 min at 95° C., 5 s at 92° C., and 20 s at 60° C. for 37 cycles followed by melt to check the specificity of the amplicons from 50 to 99° C. raising by 1° C. each step. Relative quantification was performed against a standard curve and quantified values were normalized against the input determined by PPIG. The primers used for the analysis are listed in Supplementary Table S1. […]

The subject of experiment [2] is hPSC-NSCs. Briefly: Percentage of TH positive cells produced by chemical treatment. Type of experiment: cell-based, human. Conditions: chemical treatment 2.5 μM for two weeks. As to the method:
as §1, §2

[3] abbreviates: hPSC-NSCs primed 7 days with Purmorphamine and FGF8, small molecule 2.5 μM for two weeks, read-out: DDC (AADC) expression by RT-PCR.
[4] abbreviates: hPSC-NSCs primed 7 days with Purmorphamine and FGF8, small molecule 2.5 μM for two weeks, read-out: EN1 expression by RT-PCR.
The mark [5] stands for this setting: hPSC-NSCs primed 7 days with Purmorphamine and FGF8, small molecule 2.5 μM for two weeks, read-out: KCNJ6 expression by RT-PCR.
Where [6] appears, read: hPSC-NSCs primed 7 days with Purmorphamine and FGF8, small molecule 2.5 μM for two weeks, read-out: MAP2 expression by RT-PCR.
The mark [7] stands for this setting: hPSC-NSCs primed 7 days with Purmorphamine and FGF8, small molecule 2.5 μM for two weeks, read-out: NR4A2 (NURR1) expression by RT-PCR.
The mark [8] stands for this setting: hPSC-NSCs primed 7 days with Purmorphamine and FGF8, small molecule 2.5 μM for two weeks, read-out: TH1 expression by RT-PCR.
The mark [9] stands for this setting: hPSC-NSCs primed 7 days with Purmorphamine and FGF8, small molecule 2.5 μM for two weeks, read-out: Tubb3 expression by RT-PCR.
[10] abbreviates: read-out: SLC6A3 (DAT) expression by RT-PCR.
Setting [11] is: hPSC-NSCs primed 7 days with Purmorphamine and FGF8, small molecule 2.5 μM for two weeks, read-out: LMX1B expression by RT-PCR.
[12] abbreviates: hPSC-NSCs primed 7 days with Purmorphamine and FGF8, small molecule 2.5 μM for two weeks, read-out: Pax2 expression by RT-PCR.
Setting [13] is: hPSC-NSCs primed 7 days with Purmorphamine and FGF8, small molecule 2.5 μM for two weeks.

Where a name gives a salt, the structure may show the parent alone. Read-outs that look alike come from different tables or passages of the source.

Turning to `CN(C)CCCSC(=N)N` [Dimaprit dihydrochloride], the fold induction at 2.5 µM in the experiment with hPSC-NSCs [1] (setting [3]) came to 31.9; in the experiment with hPSC-NSCs [1] (setting [4]), 15.5; with hPSC-NSCs [1] (setting [5]), 0.16; in the experiment on hPSC-NSCs [1] (setting [6]), 12.4; in the experiment on hPSC-NSCs [1] (setting [7]) it was 1.87; in the experiment with hPSC-NSCs [1] (hPSC-NSCs primed 7 days with Purmorphamine and FGF8, small molecule 2.5 μM for two weeks, read-out: PITX3 expression by RT-PCR), 0.45. The fold induction at 2.5 µM came out at 9.02 in the experiment with hPSC-NSCs [1] (setting [8]) and 9.62 in the experiment with hPSC-NSCs [1] (setting [9]). In the experiment with hPSC-NSCs [2], the “percentage of TH positive cells” value is recorded as 18%.
As for `c1cc(Cc2cnc[nH]2)ccn1` [Immethridine dihydrobromide], the fold induction at 2.5 µM worked out at 33.6 in the experiment with hPSC-NSCs [1] (setting [10]); 28.2 with hPSC-NSCs [1] (setting [3]); 11.8 with hPSC-NSCs [1] (setting [4]); 0.22 with hPSC-NSCs [1] (setting [5]); 7.66 with hPSC-NSCs [1] (setting [11]); 12.7 in the experiment with hPSC-NSCs [1] (setting [6]). In addition, the fold induction at 2.5 µM in the experiment on hPSC-NSCs [1] (setting [7]) was 0.52; with hPSC-NSCs [1] (setting [12]), 41.2; in the experiment on hPSC-NSCs [1] (setting [8]), 9.72; with hPSC-NSCs [1] (setting [9]) it was 10.6. Further, the “percentage of TH positive cells” value with hPSC-NSCs [2] is on record as 21%.
As for `O=C1Cc2c([nH]c3ccc(Br)cc23)-c2ccccc2N1` [Kenpaullone], the fold induction at 2.5 µM in the experiment on hPSC-NSCs [1] (setting [10]) was 108; in the experiment with hPSC-NSCs [1] (setting [3]) it was 11.1; in the experiment with hPSC-NSCs [1] (setting [4]), 11; in the experiment on hPSC-NSCs [1] (setting [5]) it was 0.12; in the experiment with hPSC-NSCs [1] (setting [6]) it was 8.17; in the experiment with hPSC-NSCs [1] (setting [7]), 0.05. Also, the fold induction at 2.5 µM was determined as 2.15 in the experiment on hPSC-NSCs [1] (setting [8]) and 9.61 with hPSC-NSCs [1] (setting [9]). Further, the “percentage of TH positive cells” value in the experiment on hPSC-NSCs [2] came to 33%.
`O=C(O)c1cc(=O)c2ccccc2[nH]1` [Kynurenic acid]: the fold induction at 2.5 µM in the experiment with hPSC-NSCs [1] (setting [3]) came out at 37.5; in the experiment with hPSC-NSCs [1] (setting [4]), 9.25; with hPSC-NSCs [1] (setting [5]), 0.07; in the experiment on hPSC-NSCs [1] (setting [11]), 6.36; with hPSC-NSCs [1] (setting [6]), 9.12; in the experiment on hPSC-NSCs [1] (setting [7]), 0.27. Besides, the fold induction at 2.5 µM in the experiment with hPSC-NSCs [1] (setting [12]) was 1.16; in the experiment with hPSC-NSCs [1] (hPSC-NSCs primed 7 days with Purmorphamine and FGF8, small molecule 2.5 μM for two weeks, read-out: SLC6A3 (DAT) expression by RT-PCR), 3.41; with hPSC-NSCs [1] (setting [8]) it was 16.8; in the experiment with hPSC-NSCs [1] (setting [9]) it was 6.43. In the experiment with hPSC-NSCs [2], the “percentage of TH positive cells” value amounted to 19%.
As to `Cl.N=C(N)NC(=N)Nc1cccc(Cl)c1` [m-Chlorophenylbiguanide hydrochloride], in the experiment with hPSC-NSCs [1] (setting [13]), the “DDC (AADC) expression by RT-PCR” value worked out at 69.41, the “EN1 expression by RT-PCR” value came to 7.96, the “KCNJ6 (GRK2) expression by RT-PCR” value is 1.65 and the “LMX1B expression by RT-PCR” value is 3.73. Also, in the experiment on hPSC-NSCs [1] (setting [13]), the “MAP2 expression by RT-PCR” value was 9.6, the “NR4A2 (NURR1) expression by RT-PCR” value is given as 5.51, the “Pax2 expression by RT-PCR” value was 0.28 and the “SLC6A3 (DAT) expression by RT-PCR” value is listed as 1.53. Besides, in the experiment on hPSC-NSCs [1] (setting [13]), the “TH1 expression by RT-PCR” value turned out to be 6.67 and the “Tubb3 expression by RT-PCR” value is 4.97.
Turning to `O=C(O)/C=C/CO` [trans-4-Hydroxycrotonic acid], the fold induction at 2.5 µM was found to be 6.11 with hPSC-NSCs [1] (setting [10]); 69.7 in the experiment with hPSC-NSCs [1] (setting [3]); 12.7 in the experiment on hPSC-NSCs [1] (setting [4]); 0.22 in the experiment with hPSC-NSCs [1] (setting [5]); 12.4 in the experiment with hPSC-NSCs [1] (setting [6]); 4.49 in the experiment with hPSC-NSCs [1] (setting [7]). The fold induction at 2.5 µM is 13.2 with hPSC-NSCs [1] (setting [8]) and 10.8 with hPSC-NSCs [1] (setting [9]).
Take AM580: in the experiment on hPSC-NSCs [1] (setting [13]), the “DDC (AADC) expression by RT-PCR” value was determined as 81.43, the “EN1 expression by RT-PCR” value is given as 12.94, the “KCNJ6 (GRK2) expression by RT-PCR” value was 2.73 and the “LMX1B expression by RT-PCR” value turned out to be 2.16. In the experiment with hPSC-NSCs [1] (setting [13]), the “MAP2 expression by RT-PCR” value is given as 8.55, the “NR4A2 (NURR1) expression by RT-PCR” value is listed as 7.11, the “Pax2 expression by RT-PCR” value is listed as 0.1 and the “SLC6A3 (DAT) expression by RT-PCR” value is recorded as 0.66. Also, in the experiment with hPSC-NSCs [1] (setting [13]), the “TH1 expression by RT-PCR” value is on record as 5.28 and the “Tubb3 expression by RT-PCR” value came to 4.58.

Values taken from patent US9926529B2, “Derivation of neural stem cells and dopaminergic neurons from human pluripotent stem cells” (International Stem Cell Corporation, priority 2012, dated 2018).
